Earlier results as cited in patent publication US20110290909A1, “MULTI-COMPONENT INSECT ATTRACTANT” (priority 2006, published 2011).

How the values were obtained:
male melon flies = settings: cue lure compared with raspberry ketone
male melon fruit flies = settings: in vivo

Row | Structure (SMILES) | effects on mating success (male melon flies) | effectiveness as chemical attractant for male melon fruit flies (male melon fruit flies)
1 | CC(=O)CCc1ccc(O)cc1 [raspberry ketone] | similar, short-lasting effects | very effective chemical attractant
2 | CC(=O)CCc1ccc(OC(C)=O)cc1 [cue lure] | similar, short-lasting effects | 
